Experimental findings from patent publication US11274090B2, “P300/CBP HAT inhibitors” (Constellation Pharmaceuticals, Inc., priority 2018, dated 2022) are described below.

The target of the test is p300 HAT domain (residues 1287-1666) (Homo sapiens (Human), UniProt Q09472). In words: p300 HAT SPA assay (scintillation proximity assay, acetylation of biotinylated H3(1-21) peptide). Type of test: biochemical. Conditions: average of at least 2 replicate titrations. How it is done:
In a typical experiment the p300 HAT inhibitory activity of the compounds described herein was determined in accordance with the following experimental method.
The expressed protein was purified by Ni2+ affinity, followed by anion exchange chromatography. Appropriate fractions were pooled and buffer exchanged into 20 mM Hepes pH 7.5, 150 mM NaCl, and 1 mM TCEP.
35 μL of the reaction volume was transferred to a 384-well streptavidin FlashPlate (PerkinElmer) using a Bravo liquid handler (Velocity 11) and incubated for 1.5 hr at RT. […] Data were analyzed in Genedata to determine inhibitor IC50 values.

Sequence of p300 HAT domain (residues 1287-1666) (Q09472 1287-1666): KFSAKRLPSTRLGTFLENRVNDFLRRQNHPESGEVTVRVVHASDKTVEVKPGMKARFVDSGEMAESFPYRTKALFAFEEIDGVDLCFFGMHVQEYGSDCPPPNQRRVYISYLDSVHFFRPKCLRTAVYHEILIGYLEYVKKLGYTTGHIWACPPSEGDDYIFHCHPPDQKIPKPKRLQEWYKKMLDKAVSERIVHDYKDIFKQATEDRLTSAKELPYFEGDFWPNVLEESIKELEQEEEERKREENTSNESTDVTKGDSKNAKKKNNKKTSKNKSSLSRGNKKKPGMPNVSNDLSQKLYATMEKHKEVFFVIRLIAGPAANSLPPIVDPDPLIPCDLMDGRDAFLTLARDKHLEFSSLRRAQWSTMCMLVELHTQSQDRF

In turn, `Cn1cc(-c2ccc(NC(=O)C(NCCc3c(F)cc(C#N)cc3F)c3ccccc3)nc2)cn1` (racemic) [86 racemic, (S)- and (R)-2-((4-cyano-2,6-difluorophenEthyl)amino)-N-(5-(1-methyl-1H-pyrazol-4-yl)pyridin-2-yl)-2-phenylacetamide] registered an IC50 of 169 nM. The figure for `Cn1cc(-c2ccc(NC(=O)[C@@H](NCCc3ccc(C#N)cc3)c3ccccc3)cc2)cn1` (single isomer, unassigned) [1 Isomer 1] is 4990 nM. The figure for `CC(CNC(C(=O)Nc1ccc(-c2cnn(C)c2)cc1)c1ccccc1)c1ccc(Cl)cc1` (single isomer, unassigned) [2 Isomer 1] is > 5000 nM. The figure for `CC(CNC(C(=O)Nc1ccc(-c2cnn(C)c2)cc1)c1ccccc1)c1ccc(Cl)cc1` (single isomer, unassigned) [2 Isomer 3] is 2740 nM; for `CC(CNC(C(=O)Nc1ccc(-c2cnn(C)c2)cc1)c1ccccc1)c1ccc(Cl)cc1` (single isomer, unassigned) [2 Isomer 4] it is > 5000 nM; for `CC(Cc1ccc(Cl)cc1)NC(C(=O)Nc1ccc(-c2cnn(C)c2)cc1)c1ccccc1` (single isomer, unassigned) [3 Isomer 1] it is 196 nM.

For `CC(Cc1ccc(Cl)cc1)NC(C(=O)Nc1ccc(-c2cnn(C)c2)cc1)c1ccccc1` (single isomer, unassigned) [3 Isomer 2], the IC50 is > 5000 nM. For the compound `CC(Cc1ccc(Cl)cc1)NC(C(=O)Nc1ccc(-c2cnn(C)c2)cc1)c1ccccc1` (single isomer, unassigned) [3 Isomer 3], the IC50 is > 5000 nM. The figure for `CC(Cc1ccc(Cl)cc1)NC(C(=O)Nc1ccc(-c2cnn(C)c2)cc1)c1ccccc1` (single isomer, unassigned) [3 Isomer 4] is 3890 nM; for `Cn1cc(-c2ccc(NC(=O)C(NCCc3ccc(S(N)(=O)=O)cc3)c3ccccc3)cc2)cn1` (single isomer, unassigned) [4 Isomer 1] it is 4990 nM. The figure for `Cn1cc(-c2ccc(NC(=O)C(NCCc3ccc(S(N)(=O)=O)cc3)c3ccccc3)cc2)cn1` (single isomer, unassigned) [4 Isomer 2] is 1370 nM. The figure for `Cn1cc(-c2ccc(NC(=O)[C@@H](NCCc3ccc(Cl)cc3)c3ccccc3)cc2)cn1` (single isomer, unassigned) [5 Isomer 2] is > 5000 nM. `CC(CNC(C(=O)Nc1ccc(-c2cnn(C(C)(C)CO)c2)cn1)c1ccccc1)c1ccc(C#N)cc1` (single isomer, unassigned) [8 Isomer 1] gave an IC50 of 309 nM.

Take `CC(CNC(C(=O)Nc1ccc(-c2cnn(C(C)(C)CO)c2)cn1)c1ccccc1)c1ccc(C#N)cc1` (single isomer, unassigned) [8 Isomer 2]: the IC50 was 1350 nM.

As for `CC(CNC(C(=O)Nc1ccc(-c2cnn(C(C)(C)CO)c2)cn1)c1ccccc1)c1ccc(C#N)cc1` (single isomer, unassigned) [8 Isomer 3], the IC50 was 1230 nM.

`CC(CNC(C(=O)Nc1ccc(-c2cnn(C(C)(C)CO)c2)cn1)c1ccccc1)c1ccc(C#N)cc1` (single isomer, unassigned) [8 Isomer 4] showed an IC50 of 19.6 nM. Take `Cc1cnc(-c2ccc(NC(=O)[C@@H](NCCc3ccc(Cl)cc3)c3ccccc3)cc2)[nH]1` (single isomer, unassigned) [9 Isomer 1]: the IC50 is > 5000 nM. For `Cc1cnc(-c2ccc(NC(=O)[C@@H](NCCc3ccc(Cl)cc3)c3ccccc3)cc2)[nH]1` (single isomer, unassigned) [9 Isomer 2], inhibition was half-maximal at 133 nM (IC50). The figure for `O=C(Nc1ccc(-c2cccnn2)cc1)C(NCCc1ccc(Cl)cc1)c1ccccc1` (single isomer, unassigned) [10 Isomer 1] is > 5000 nM. The figure for `O=C(Nc1ccc(-c2cccnn2)cc1)C(NCCc1ccc(Cl)cc1)c1ccccc1` (single isomer, unassigned) [10 Isomer 2] is 580 nM; for `Cc1cnc(-c2ccc(NC(=O)C(NCCc3ccc(C#N)cc3)c3ccccc3)cc2)[nH]1` (single isomer, unassigned) [11 Isomer 1] it is 279 nM; for `Cc1cnc(-c2ccc(NC(=O)C(NCCc3ccc(C#N)cc3)c3ccccc3)cc2)[nH]1` (single isomer, unassigned) [11 Isomer 2] it is > 5000 nM. The figure for `N#Cc1ccc(CCNC(C(=O)Nc2ccc(-c3cccnn3)cc2)c2ccccc2)cc1` (single isomer, unassigned) [12 Isomer 1] is > 5000 nM. As for `Cc1ccc(-c2ccc(NC(=O)C(NCC(C)c3ccc(C#N)cc3)c3ccccc3)nc2)nn1` (single isomer, unassigned) [15 Isomer 1], the IC50 is > 2000 nM.

For the compound `Cc1ccc(-c2ccc(NC(=O)C(NCC(C)c3ccc(C#N)cc3)c3ccccc3)nc2)nn1` (single isomer, unassigned) [15 Isomer 2], the 50% inhibitory concentration (IC50) is > 2000 nM. The figure for `Cc1ccc(-c2ccc(NC(=O)C(NCC(C)c3ccc(C#N)cc3)c3ccccc3)nc2)nn1` (single isomer, unassigned) [15 Isomer 3] is > 2000 nM; for `Cc1cn(-c2ccc(NC(=O)[C@@H](NCCc3ccc(Cl)cc3)c3ccccc3)cc2)cn1` (single isomer, unassigned) [16 Isomer 2] it is > 5000 nM; for `CN1CCN(c2ccc(NC(=O)[C@@H](NCCc3ccc(Cl)cc3)c3ccccc3)cc2)CC1` (single isomer, unassigned) [17 Isomer 2] it is > 5000 nM. The figure for `Cn1cc(-c2ncc(NC(=O)C(NCCc3ccc(C#N)cc3)c3ccccc3)cn2)cn1` (single isomer, unassigned) [23 Isomer 1] is > 5000 nM; for `Cn1cc(-c2ncc(NC(=O)C(NCCc3ccc(C#N)cc3)c3ccccc3)cn2)cn1` (single isomer, unassigned) [23 Isomer 2] it is > 5000 nM; for `COc1cc(-c2cnn(C)c2)ccc1NC(=O)C(NCCc1ccc(C#N)cc1)c1ccccc1` (single isomer, unassigned) [24 Isomer 1] it is > 5000 nM. The figure for `COc1cc(-c2cnn(C)c2)ccc1NC(=O)C(NCCc1ccc(C#N)cc1)c1ccccc1` (single isomer, unassigned) [24 Isomer 2] is 607 nM; for `COc1cc(NC(=O)C(NCCc2ccc(C#N)cc2)c2ccccc2)ccc1-c1cnn(C)c1` (single isomer, unassigned) [25 Isomer 2] it is > 5000 nM. `Cn1cc(-c2ccc(NC(=O)C(NCCc3ccc(C#N)cc3)c3ccccc3)c(Cl)c2)cn1` (single isomer, unassigned) [26 Isomer 2] showed an IC50 of 1850 nM. In other words, the single-digit micromolar range. For `Cn1cc(-c2ccc(NC(=O)C(NCCc3ccc(C#N)cc3)c3ccccc3)cc2Cl)cn1` (single isomer, unassigned) [27 Isomer 2], the IC50 was > 5000 nM. The figure for `Cn1cc(-c2ccc(NC(=O)C(NCCc3ccc(C#N)cc3F)c3ccccc3)nc2)cn1` (single isomer, unassigned) [29 Isomer 1] is 22.9 nM. The figure for `Cn1cc(-c2ccc(NC(=O)C(NCCc3ccc(C#N)cc3F)c3ccccc3)nc2)cn1` (single isomer, unassigned) [29 Isomer 2] is 2760 nM. The figure for `N#Cc1ccc(CCNC(C(=O)Nc2ccn(C3CCOCC3)n2)c2ccccc2)cc1` (single isomer, unassigned) [30 Isomer 1] is > 5000 nM; for `N#Cc1ccc(CCNC(C(=O)Nc2ccn(C3CCOCC3)n2)c2ccccc2)cc1` (single isomer, unassigned) [30 Isomer 2] it is > 5000 nM; for `COC1CN(c2ccc(NC(=O)C(NCC(C)c3ccc(C#N)cc3)c3ccccc3)nc2)C1` (single isomer, unassigned) [32 Isomer 1] it is > 2000 nM. On to `COC1CN(c2ccc(NC(=O)C(NCC(C)c3ccc(C#N)cc3)c3ccccc3)nc2)C1` (single isomer, unassigned) [32 Isomer 2], for which the IC50 is 18.8 nM.

Turning to `COC1CN(c2ccc(NC(=O)C(NCC(C)c3ccc(C#N)cc3)c3ccccc3)nc2)C1` (single isomer, unassigned) [32 Isomer 3], the IC50 is > 2000 nM. The figure for `COC1CN(c2ccc(NC(=O)C(NCC(C)c3ccc(C#N)cc3)c3ccccc3)nc2)C1` (single isomer, unassigned) [32 Isomer 4] is > 2000 nM; for `N#Cc1ccc(CCNC(C(=O)Nc2ccc(N3CCCC3)nc2)c2ccccc2)cc1` (single isomer, unassigned) [35 Isomer 1] it is > 5000 nM; for `N#Cc1ccc(CCNC(C(=O)Nc2ccc(N3CCCC3)nc2)c2ccccc2)cc1` (single isomer, unassigned) [35 Isomer 2] it is > 5000 nM. The figure for `CN1CCN(c2ccc(NC(=O)C(NCCc3ccc(C#N)cc3)c3ccccc3)cn2)CC1` (single isomer, unassigned) [36 Isomer 1] is 3270 nM. `CN1CCN(c2ccc(NC(=O)C(NCCc3ccc(C#N)cc3)c3ccccc3)cn2)CC1` (single isomer, unassigned) [36 Isomer 2]: the IC50 was > 5000 nM. The compound `N#Cc1ccc(CCNC(C(=O)Nc2ccc(N3CCCC3)cn2)c2ccccc2)cc1` (single isomer, unassigned) [37 Isomer 2] displayed an IC50 of 3730 nM. That is a single-digit micromolar value. The figure for `N#Cc1ccc(CCNC(C(=O)Nc2ccc(N3CCC(F)(F)CC3)cn2)c2ccccc2)cc1` (single isomer, unassigned) [38 Isomer 1] is 206 nM. As to `N#Cc1ccc(CCNC(C(=O)Nc2ccc(N3CCC(F)(F)CC3)cn2)c2ccccc2)cc1` (single isomer, unassigned) [38 Isomer 2], the IC50 is > 2000 nM. The figure for `Cc1nc(NC(=O)C(NCC(C)c2ccc(C#N)cc2)c2ccccc2)ccc1-c1cnn(C)c1` (single isomer, unassigned) [39 Isomer 1] is > 2000 nM; for `Cc1nc(NC(=O)C(NCC(C)c2ccc(C#N)cc2)c2ccccc2)ccc1-c1cnn(C)c1` (single isomer, unassigned) [39 Isomer 2] it is > 2000 nM.
